The results in this text go back to ChEMBL document CHEMBL1155649, “A new inhibitor of 5'-hydroxyaverantin dehydrogenase, an enzyme involved in aflatoxin biosynthesis, from Trichoderma hamatum” (J Nat Prod, 2000).

The source made the active and inactive calls. No cut-off for these calls is given here.

The nature of assay [1]: Inhibition of Aspergillus parasiticus NIAH-26 5'-hydroxyaverantin dehydrogenase.
Assay [2] is described as follows: Inhibition of malate dehydrogenase at 3 mM.

What is called IC50 is the concentration that inhibits the measured activity by half. A high value points to lower potency. For the compound `CO[C@H]1[C@@H](O)[C@@]2(C)c3ccc4c(c3-c3c2c(coc3=O)[C@@H]1O)CCC4=O` (relative stereo), half-maximal inhibition in assay [1] (IC50) required 250 µM. In assay [2], the result was inactive.
